Source: patent publication US8507454B2, “Methods and unit dose formulations for the inhalation administration of aminoglycoside antibiotics” (priority 2001, dated 2013)
“Also recorded” adds a separate entry of the source.

What was measured:
[1] = Example 1: urine tobramycin recovery; assay type: in vivo, human; conditions: 7 days after prestudy or previous TOBI dose, LOQ 1.0 μg/mL
Description: Urine specimens were collected and combined in a 24-hour collection container during the 12 hours before treatment (−12-0 hour period) and during 0-8 hour and 8-24 hour collection periods after treatment according to instructions provided in the Study Manual. Total urine volume for the collection period was recorded, and a 10 mL aliquot from each urine collection was retained and frozen for later analysis of urine tobramycin concentration.
The recovery of tobramycin in urine (in […]) during 0-8 hour and 8-24 hour collection periods was calculated as follows. urine tobramycin recovery (μg)=urine volume (mL)·urine tobramycin concentration (μg/mL)
Urine tobramycin recovery was normalized for each collection period according to TOBI dose as follows. dose-normalized urine tobramycin recovery (μg/mg)=[urine tobramycin recovery (μg)÷TOBI dose (mg)]
The percent of the TOBI dose excreted in urine in the 24-hour period following treatment was calculated as follows. % tobramycin excreted in urine =[(urinary recovery in μg÷1000 μg/mg)÷TOBI dose in mg]·100%.
Tobramycin concentrations in urine were measured by Abbott TDxFLx® assay [urine lower limit of quantitation (LOQ)=1.0 μg/mL].

[2] = Example 3: serum tobramycin pharmacokinetics; assay type: in vivo; conditions: both sexes, human, inhaled, both formulations (300 mg TOBI, 420 mg TSI), read-out: Individual estimates of serum half-life, range
Description: A comparison was made of the safety, pharmacokinetics, aerosol delivery characteristics, and nebulization time of the conventional dose and inhalation delivery system (5 mL ampoule containing 300 mg tobramycin and 11.25 mg sodium chloride in sterile water for injection (TOBI® tobramycin solution for inhalation, Chiron Corporation, Seattle, Wash.), pH 6.0; administered with a PART LC PLUS™ jet nebulizer with a DeVilbiss PulmoAide™ compressor set to deliver an output pressure of 20 psi—the “control delivery system”) with a dose of 420 mg Tobramycin Solution for Inhalation at 120 mg/mL (excipient 3.5 mL of ¼ normal saline adjusted to a pH of 6.0±0.5; 420 mg in 3.5 mL) delivered by the PAM LC PLUS™ jet nebulizer with a Invacare MOBILAIRE™ compressor set to deliver an output pressure of 35 psi (the “experimental delivery system”).
The study was designed as an open label, randomized, single-dose, multicenter, two treatment, active-control, and parallel trial. […]
Serum Tobramycin Concentrations: Blood samples were collected at predose and at 0.167, 1, 2, 4, 6, and 8 h after the end of the nebulization period. […] Concentrations of tobramycin in serum were analyzed with a modified fluorescence polarization immunoassay (FPIA) method using the Abbott TDx®/TDxFLx® System. […] The lower limit of quantitation was 0.050 μg/mL. […]

[3] = Example 3: sputum tobramycin pharmacokinetics; assay type: in vivo; conditions: both sexes, human, inhaled, both formulations (300 mg TOBI, 420 mg TSI), read-out: Individual estimates of sputum half-life, range
Description: A comparison was made of the safety, pharmacokinetics, aerosol delivery characteristics, and nebulization time of the conventional dose and inhalation delivery system (5 mL ampoule containing 300 mg tobramycin and 11.25 mg sodium chloride in sterile water for injection (TOBI® tobramycin solution for inhalation, Chiron Corporation, Seattle, Wash.), pH 6.0; administered with a PART LC PLUS™ jet nebulizer with a DeVilbiss PulmoAide™ compressor set to deliver an output pressure of 20 psi—the “control delivery system”) with a dose of 420 mg Tobramycin Solution for Inhalation at 120 mg/mL (excipient 3.5 mL of ¼ normal saline adjusted to a pH of 6.0±0.5; 420 mg in 3.5 mL) delivered by the PAM LC PLUS™ jet nebulizer with a Invacare MOBILAIRE™ compressor set to deliver an output pressure of 35 psi (the “experimental delivery system”). […]
Sputum Tobramycin Concentrations: Sputum samples were expectorated by patients from a deep cough and collected before day 1 dosing (predose) and at 0.25, 1, 2, 4, and 8 h after the end of the nebulization period. […] The concentration of tobramycin was analyzed using reversed-phase high-performance liquid chromatography (HPLC) with ultraviolet detection. […] After addition of 600 μL of 60/40 acetonitrile/water (v/v), 50 μL was analyzed by HPLC. […]

Gram-negative bacteria = conditions: Neu 1976; cited from earlier work
P. aeruginosa isolates = conditions: initial sputum cultures, Children's Hospital CF Center, Seattle, 1993; cited from earlier work
P. aeruginosa = conditions: cited from earlier work

In the case of `NC[C@H]1O[C@H](O[C@H]2[C@H](O)[C@@H](O[C@H]3O[C@H](CO)[C@@H](O)[C@H](N)[C@H]3O)[C@H](N)C[C@@H]2N)[C@H](N)C[C@@H]1O` [tobramycin], the “Measurable predose urine tobramycin concentration during period listed, individual patients” value ([1]; after prestudy tobramycin) is reported as “Per 1 - 1.82 μg/mL; also recorded: Per 1 - 3.14 μg/mL; also recorded: Per 1 - 1.74 μg/mL; also recorded: Per 1 - 2.72 μg/mL; also recorded: Per 1 - 3.80 μg/mL”, the “Measurable predose urine tobramycin concentration during period listed, individual patients” value ([1]; after previous TOBI 30 mg) is reported as “Per 3 - 1.20 μg/mL” and the “Measurable predose urine tobramycin concentration during period listed, individual patients” value ([1]; after previous TOBI 60 mg) is reported as “Per 3 - 1.30 μg/mL; also recorded: Per 3 - 13.22 μg/mL”. The “Measurable predose urine tobramycin concentration during period listed, individual patients” value ([1]; after previous TOBI 90 mg) was “Per 2 - 3.10 μg/mL”, the “Measurable predose urine tobramycin concentration during period listed, individual patients” value ([1]; after previous TOBI 300 mg) was “Per 2 - 2.06 μg/mL; also recorded: Per 2 - 2.58 μg/mL; also recorded: Per 2 - 1.48 μg/mL; also recorded: Per 2 - 1.58 μg/mL; also recorded: Per 2 - 2.28 μg/mL; also recorded: Per 3 - 2.70 μg/mL; also recorded: Per 3 - 1.16 μg/mL; also recorded: Per 3^c - 1.12 μg/mL; also recorded: Per 3 - 2.08 μg/mL” and the half-life [2] was 1.1 to 6.8 h. The half-life [3] was 0.48 to 9.47 h, the “Concentrations effective in inhibiting the growth of many Gram-negative bacteria” value (Gram-negative bacteria) was under 4 µg/mL and the “MICs of 90% of isolates” value (P. aeruginosa isolates) was at most 16 µg/mL. The “MICs of 98% of all isolates” value (P. aeruginosa isolates) was at most 128 µg/mL, the “Average decrease in P. aeruginosa density, Week 0 to Week 20” value (P. aeruginosa; 300 mg inhaled tobramycin twice daily, 28 days on/28 days off, Ramsey 1999) was 0.8 log10 and the “Average decrease in P. aeruginosa density, Week 0 to Week 4” value (P. aeruginosa; 300 mg inhaled tobramycin twice daily, Ramsey 1999) was 1.9 log10. For the same molecule, the “Sputum density of P. aeruginosa” value (P. aeruginosa; 600 mg tid aerosolized tobramycin, 71 CF patients, crossover trial, Ramsey 1993) was “significant reduction”.
